Source: ChEMBL document CHEMBL6083255, “Synthesis and biological evaluation of novel isobenzofuran-1(3H)-one derivatives as antidepressant agents” (2024)
Calls of active or inactive are those of the source. No cut-off for these calls is given here.

Experiments:
RBL-2H3 [1] = assay: Cytotoxicity against Wistar rat RBL-2H3 cells assessed as cell viability at 25 uM incubated for 24 hrs by MTT assay; format: functional; details: read-out: Activity
Mus musculus [2] = assay: Antidepressant activity in chronic restraint stress induced C57BL/6J mouse model assessed as increase in entries in open arm at 10 to 50 mg/kg, po pretreated with CRS for 14 days followed by compound addition on day 15 and measured after 31 days by elevated plus maze test; format: functional, organism-based; details: dose 10-50 mg/kg, time 31.0 day
Mus musculus [3] = assay: Antidepressant activity in chronic restraint stress induced C57BL/6J mouse model assessed as increase in 5-HT level in prefrontal cortex at 10 mg/kg, po administered as prophylactic dose by ELISA; format: functional, organism-based
CHO-K1 [4] = assay: Antagonist activity at mu opioid receptor in CHO-K1 cells assessed as intracellular fluorescence intensity at 50 uM incubated for 2 mins by microplate reader assay; format: cell-based; details: Cricetulus griseus
Mus musculus [5] = assay: Antidepressant activity in chronic restraint stress induced C57BL/6J mouse model assessed as increase in total distance in center zone at 10 to 50 mg/kg, po pretreated with CRS for 14 days followed by compound addition on day 15 and measured after 29 days by open field test; format: functional, organism-based; details: dose 10-50 mg/kg, time 29.0 day
Mus musculus [6] = assay: Antidepressant activity in chronic restraint stress induced C57BL/6J mouse model assessed as rescue of normal neurons at 10 mg/kg, po administered as prophylactic dose by Nissl staining based optical microscopic assay; format: functional, organism-based
Mus musculus [7] = assay: Antidepressant activity in chronic restraint stress induced C57BL/6J mouse model assessed as increase in distance in open arm at 10 to 50 mg/kg, po pretreated with CRS for 14 days followed by compound addition on day 15 and measured after 31 days by elevated plus maze test; format: functional, organism-based; details: dose 10-50 mg/kg, time 31.0 day
Mus musculus [8] = assay: Antidepressant activity in chronic restraint stress induced C57BL/6J mouse model assessed as rescue of normal neurons at 10 to 50 mg/kg, po pretreated with CRS for 14 days followed by compound addition on day 15 by Nissl staining based optical microscopic assay; format: functional, organism-based; details: dose 10-50 mg/kg
RBL-2H3 [9] = assay: Cytotoxicity against Wistar rat RBL-2H3 cells assessed as cell viability at 5 uM incubated for 24 hrs by MTT assay; format: functional; details: read-out: Activity
RBL-2H3 [10] = assay: Cytotoxicity against Wistar rat RBL-2H3 cells assessed as cell viability at 1 uM incubated for 24 hrs by MTT assay; format: functional; details: read-out: Activity
Mus musculus [11] = assay: Antidepressant activity in chronic restraint stress induced C57BL/6J mouse model assessed as increase the time in center zone at 10 mg/kg, po administered as prophylactic dose and measured on day 29 by open field test; format: functional, organism-based; details: time 29.0 day
Mus musculus [12] = assay: Antidepressant activity in chronic restraint stress induced C57BL/6J mouse model assessed as reduction in immobility time at 10 to 50 mg/kg, po pretreated with CRS for 14 days followed by compound addition on day 15 and measured after 30 days by force swimming test; format: functional, organism-based; details: dose 10-50 mg/kg, time 30.0 day
Mus musculus [13] = assay: Antidepressant activity in chronic restraint stress induced C57BL/6J mouse model assessed as increase the time in center zone at 10 to 50 mg/kg, po pretreated with CRS for 14 days followed by compound addition on day 15 and measured after 29 days by open field test; format: functional, organism-based; details: dose 10-50 mg/kg, time 29.0 day
Mus musculus [14] = assay: Antidepressant activity in chronic restraint stress induced C57BL/6J mouse model assessed as increase in PSD-95 expression level at 10 mg/kg, po administered as prophylactic dose by Western blotting assay; format: functional, organism-based
Mus musculus [15] = assay: Antidepressant activity in chronic restraint stress induced C57BL/6J mouse model assessed as increase in spinophilin positive cells in cortex at 10 mg/kg, po administered as prophylactic dose by immunohistochemistry assay; format: functional, organism-based
Mus musculus [16] = assay: Antidepressant activity in C57BL/6J mouse assessed as reduction in CRS induced body weight loss at 10 mg/kg, po administered as prophylactic dose and measured upto 28 days; format: functional, organism-based; details: time <= 28.0 day
Mus musculus [17] = assay: Antidepressant activity in chronic restraint stress induced C57BL/6J mouse model assessed as increase in time in open arm at 10 mg/kg, po administered as prophylactic dose and measured on day 31 by elevated plus maze test; format: functional, organism-based; details: time 31.0 day
Mus musculus [18] = assay: Antidepressant activity in chronic restraint stress induced C57BL/6J mouse model assessed as increase in latency entries into center zone at 10 to 50 mg/kg, po pretreated with CRS for 14 days followed by compound addition on day 15 and measured after 29 days by open field test; format: functional, organism-based; details: dose 10-50 mg/kg, time 29.0 day
Mus musculus [19] = assay: Antidepressant activity in chronic restraint stress induced C57BL/6J mouse model assessed as increase in latency entries into center zone at 10 mg/kg, po administered as prophylactic dose and measured on day 29 by open field test; format: functional, organism-based; details: time 29.0 day
Mus musculus [20] = assay: Antidepressant activity in chronic restraint stress induced C57BL/6J mouse model assessed as increase in 5-HT level in prefrontal cortex at 10 to 50 mg/kg, po pretreated with CRS for 14 days followed by compound addition on day 15 by ELISA; format: functional, organism-based; details: dose 10-50 mg/kg
Mus musculus [21] = assay: Antidepressant activity in chronic restraint stress induced C57BL/6J mouse model assessed as increase in distance in open arm at 10 mg/kg, po administered as prophylactic dose and measured on day 31 by elevated plus maze test; format: functional, organism-based; details: time 31.0 day
Mus musculus [22] = assay: Antidepressant activity in chronic restraint stress induced C57BL/6J mouse model assessed as reduction in immobility time at 10 mg/kg, po administered as prophylactic dose and measured on day 30 by force swimming test; format: functional, organism-based; details: time 30.0 day
Mus musculus [23] = assay: Antidepressant activity in chronic restraint stress induced C57BL/6J mouse model assessed as increase in entries in open arm at 10 mg/kg, po administered as prophylactic dose and measured on day 31 by elevated plus maze test; format: functional, organism-based; details: time 31.0 day
Mus musculus [24] = assay: Antidepressant activity in C57BL/6J mouse assessed as reduction in CRS induced body weight loss at 10 to 50 mg/kg, po pretreated with CRS for 14 days followed by compound addition on day 15 and measured upto 28 days; format: functional, organism-based; details: dose 10-50 mg/kg, time <= 28.0 day
Mus musculus [25] = assay: Antidepressant activity in chronic restraint stress induced C57BL/6J mouse model assessed as increase in spinophilin positive cells in cortex at 10 to 50 mg/kg, po pretreated with CRS for 14 days followed by compound addition on day 15 by immunohistochemistry assay; format: functional, organism-based; details: dose 10-50 mg/kg
[26] = biological target: Sodium-dependent serotonin transporter (Rattus norvegicus) (UniProt P31652); assay: Inhibition of SERT in Wistar rat RBL-2H3 cells assessed as decrease in fluorescence intensity at 10 uM preincubated for 2 hrs followed by APP+ addition and measured after 1 hr by fluorescence based assay; format: cell-based; details: time 3.0 hrs
Chain of Sodium-dependent serotonin transporter (Rattus norvegicus) (P31652 whole entry): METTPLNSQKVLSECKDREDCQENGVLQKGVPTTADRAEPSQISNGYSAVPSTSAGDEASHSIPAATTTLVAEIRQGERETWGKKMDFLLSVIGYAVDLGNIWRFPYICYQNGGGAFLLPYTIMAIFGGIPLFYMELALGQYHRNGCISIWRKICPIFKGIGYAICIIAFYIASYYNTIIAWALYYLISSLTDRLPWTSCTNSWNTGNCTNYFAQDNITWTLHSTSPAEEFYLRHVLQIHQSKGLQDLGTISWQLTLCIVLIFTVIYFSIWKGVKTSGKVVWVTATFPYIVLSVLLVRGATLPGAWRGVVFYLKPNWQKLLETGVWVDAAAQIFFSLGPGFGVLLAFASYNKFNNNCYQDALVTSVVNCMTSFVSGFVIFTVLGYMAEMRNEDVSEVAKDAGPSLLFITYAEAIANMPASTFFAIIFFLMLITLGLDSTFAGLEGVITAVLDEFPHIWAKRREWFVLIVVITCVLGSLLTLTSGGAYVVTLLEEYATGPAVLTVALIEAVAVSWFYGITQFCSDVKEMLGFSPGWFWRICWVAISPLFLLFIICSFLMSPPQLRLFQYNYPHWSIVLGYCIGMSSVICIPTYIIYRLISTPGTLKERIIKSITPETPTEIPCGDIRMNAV

Mus musculus [27] = assay: Antidepressant activity in chronic restraint stress induced C57BL/6J mouse model assessed as increase in time in open arm at 10 to 50 mg/kg, po pretreated with CRS for 14 days followed by compound addition on day 15 and measured after 31 days by elevated plus maze test; format: functional, organism-based; details: dose 10-50 mg/kg, time 31.0 day
Mus musculus [28] = assay: Antidepressant activity in chronic restraint stress induced C57BL/6J mouse model assessed as increase in Bcl2/Bax level at 10 mg/kg, po administered as prophylactic dose by Western blotting assay; format: functional, organism-based
CHO-K1 [29] = assay: Antagonist activity at CCK-B receptor in CHO-K1 cells at 50 uM incubated for 90 sec by microplate reader assay; format: cell-based; details: Cricetulus griseus
Mus musculus [30] = assay: Antidepressant activity in chronic restraint stress induced C57BL/6J mouse model assessed as increase in BDNF expression level at 10 mg/kg, po administered as prophylactic dose by Western blotting assay; format: functional, organism-based
RBL-2H3 [31] = assay: Cytotoxicity against Wistar rat RBL-2H3 cells assessed as cell viability at 125 uM incubated for 24 hrs by MTT assay; format: functional; details: read-out: Activity
CHO-K1 [32] = assay: Agonist activity at mu opioid receptor in CHO-K1 cells assessed as increase in intracellular fluorescence intensity at 50 uM incubated for 90 sec by microplate reader assay; format: cell-based; details: Cricetulus griseus
Mus musculus [33] = assay: Antidepressant activity in chronic restraint stress induced C57BL/6J mouse model assessed as increase in hippocampus TPH2 protein expression at 10 mg/kg, po administered as prophylactic dose by Western blotting analysis; format: functional, organism-based
Mus musculus [34] = assay: Antidepressant activity in chronic restraint stress induced C57BL/6J mouse model assessed as increase in total distance in center zone at 10 mg/kg, po administered as prophylactic dose and measured on day 29 by open field test; format: functional, organism-based; details: time 29.0 day
CHO-K1 [35] = assay: Agonist activity at CCK-B receptor in CHO-K1 cells incubated for 90 sec by microplate reader assay; format: cell-based; details: Cricetulus griseus
Mus musculus [36] = assay: Antidepressant activity in chronic restraint stress induced C57BL/6J mouse model assessed as increase in TrkB expression level at 10 mg/kg, po administered as prophylactic dose by Western blotting assay; format: functional, organism-based

SMILES: CCN(CC)CC1(c2ccc(Cl)cc2)OC(=O)c2ccccc21 (stereo unspecified)
- viability at 25 µM (RBL-2H3 [1]): 117%
- Activity (Mus musculus [2]): Active
- Activity (Mus musculus [3]): Active
- Activity (CHO-K1 [4]): inactive
- Activity (Mus musculus [5]): Active
- Activity (Mus musculus [6]): Active
- Activity (Mus musculus [7]): Active
- Activity (Mus musculus [8]): Active
- viability at 5 µM (RBL-2H3 [9]): 107%
- viability at 1 µM (RBL-2H3 [10]): 105%
- Activity (Mus musculus [11]): Active
- Activity (Mus musculus [12]): Active
- Activity (Mus musculus [13]): Active
- Activity (Mus musculus [14]): Active
- Activity (Mus musculus [15]): Active
- Activity (Mus musculus [16]): Active
- Activity (Mus musculus [17]): Active
- Activity (Mus musculus [18]): Active
- Activity (Mus musculus [19]): Active
- Activity (Mus musculus [20]): Active
- Activity (Mus musculus [21]): Active
- Activity (Mus musculus [22]): Active
- Activity (Mus musculus [23]): Active
- Activity (Mus musculus [24]): Active
- Activity (Mus musculus [25]): Active
- Activity [26]: Active; Activity Stronger Than Fluoxetine
- Activity (Mus musculus [27]): Active
- Activity (Mus musculus [28]): Active
- Activity (CHO-K1 [29]): inactive
- Activity (Mus musculus [30]): Active
- viability at 125 µM (RBL-2H3 [31]): 132%
- Activity (CHO-K1 [32]): inactive
- Activity (Mus musculus [33]): Active
- Activity (Mus musculus [34]): Active
- Activity (CHO-K1 [35]): inactive
- Activity (Mus musculus [36]): Active
